Measurements as given in patent US5587397A, “Reduction of elevated blood lactate using twice-daily dichloroacetate” (Cypros Pharmaceutical Corporation, priority 1995, dated 1996).
“Also recorded” adds a separate entry of the source. Read-outs that look alike come from different tables or passages of the source.

Assays:
serum lactate = test: Serum/blood lactate concentration in human volunteers after intravenous DCA infusion; type: in vivo; settings: for Serum lactate, baseline: before infusion; for Serum lactate, baseline / Serum lactate just before second infusion / Serum lactate 14 h after second infusion: mean ± SEM; for Serum lactate just before second infusion: second infusion 8 h later; for Level of statistical significance, (b) vs. placebo: just before second infusion; for Persistence of lactate reduction relative to DCA clearance: 60 mg/kg
Experimental: Eighteen human beings entered this study; all provided informed consent that was acceptable to an independent Institutional Review Board, which also approved the study design and toxicological coverage. The human subjects were all healthy, were fasted for 18 hours prior to the study infusions, and were all within 85% to 115% of ideal body weight, using actuarial tables published by the Metropolitan Life Insurance Company. Each received an accurately measured meal (late breakfast, 821 kcal total including 116 g of carbohydrate, 30 g of protein, and 32 g of fat).
(§1) Teflon venous catheters were placed in both forearms of all subjects. One, for drug administration, was left in place for 10 hours. The other, for blood sampling, was left in place for about 30 hours. Both venous cannulae were regularly flushed with a heparin-saline solution to avoid any risk of clogging or clotting. When blood was sampled, the first-drawn fluid was discarded, so that blood samples were not contaminated with the heparin-saline solution.
(§2) Sodium dichloroacetate (NaDCA; purchased in powdered form from TCI America, Inc., Portland, Oreg.) was dissolved in saline solution to provide a 10% sterile solution (i.e., 10 g of NaDCA in 100 ml solution) at a contract lab. The vials containing 10% solution were shipped to the study site, in Indiana, and then diluted to form approximately 2% solutions in intravenous drip bags. Exact concentrations depended to some extent on the weight of each patient; all concentrations were within 20 % of isotonic levels. A 2% solution was administered through one cannula into each test subject over a period of 30 minutes, at a dosage of 30 mg/kg (i.e, 30 milligrams of NaDCA salt per kilogram of body weight). The average total weight of NaDCA infused into each patient was about 2.26±0.54 g; total volume of solution was about 100 ml. […] Nine subjects received a single infusion of DCA, and nine received the saline placebo.
(§3) Samples of venous blood from the other cannula (in the opposite forearm) were taken, before and several times periodically after the intravenous infusion. The infusions were number-coded, and all solutions (both active and placebo) were colorless; therefore, this was a double-blinded study.
Blood samples were collected into tubes containing sodium heparin, and spun at 64 G (i.e., 64 times normal gravity) for 10 minutes, to remove blood cells. The supernatant was then deproteinized, using 6% perchloric acid; various other agents, such as acetonitrile, could alternately be used if desired. The deproteinized liquid was then centrifuged again at 64 G for 10 minutes, and the supernatant was decanted and divided into 0.20 mL aliquots. At least one aliquot was stored at -40° C. as a backup in case checks were needed, while tests were run on other aliquots.
Blood samples were assayed for lactate concentration at a registered clinical laboratory (SmithKline Beckman, in Evansville, Ind.), using a commercial assay kit sold by Sigma Chemical Company (St. Louis, Mo.). This assay uses an enzymatic procedure involving lactate dehydrogenase; it adds glycine to the samples as a buffer, along with a standardized excess amount of NAD. The lactate dehydrogenase enzyme converts lactate to pyruvate, and the hydrogen atoms that are liberated by this reaction convert NAD to reduced NAD (NADH). The NADH absorbs ultraviolet light at 340 nm, and the level of absorbance (measured by a spectrophotometer) is directly proportional to the amount of NADH in the sample, and thus to the amount of lactate that was initially present in the sample.
In a second set of test subjects (18 total: 9 test subjects and 9 saline placebo controls), sodium DCA was administered in an identical manner, using a single 30-minute infusion, at a dosage of 60 mg/kg. […]

[1] = DCA clearance from the blood of human subjects after intravenous infusion; type: in vivo
Experimental: as §1, §2, §3
Blood samples were collected into tubes containing sodium heparin, and spun at 64 G (i.e., 64 times normal gravity) for 10 minutes, to remove blood cells. The supernatant was then deproteinized, using 6% perchloric acid; various other agents, such as acetonitrile, could alternately be used if desired. […]

[2] = Reported DCA pharmacokinetics in dogs (literature); type: in vivo, dog; settings: dogs vs. 0.5 hour in humans
Text: Accordingly, dogs cannot be used as reliable models or predictors for the pharmacokinetic effects of DCA in humans.

[3] = Reported DCA concentration and clearance in rats (literature); type: in vivo, rat; settings: oral 100 mg/kg vs. human i.v.
Experimental: Evans et al 1981 administered DCA orally, in 100 mg/kg doses, either once, or daily for seven days.

[4] = Side effects of DCA infusion in healthy volunteers; type: in vivo, human; settings: 100 mg/kg infused within 30 minutes
Experimental: Accordingly, to ensure that this effect would not occur when DCA was administered, an initial dose of 100 mg/kg NaDCA was infused into test subjects, and a second dose of 50 mg/kg was infused 8 hours later.
The dose of 100 mg/kg is the highest dose so far administered to human beings within 30 minutes. […] This was not considered clinically significant and needed no treatment; it would be relatively unimportant in most of the pathological states that are proper subjects for treatment using DCA. However, the sedation side effect was regarded as creating a practical limit (100 mg/kg infused in 30 minutes or less) for tests on healthy volunteers.

[5] = humans, cited from earlier work
[6] = dogs; Lukas et al 1980, Ribes et al 1979; cited from earlier work
[7] = cited from earlier work
[8] = system: pyruvate dehydrogenase enzyme complex; settings: rats; Evans 1982; cited from earlier work
[9] = especially over prolonged periods, Stacpoole et al 1979; cited from earlier work
[10] = 100 + 50 group, 14 h after second infusion

O=C([O-])C(Cl)Cl.[Na+] [DCA, sodium dichloroacetate]
Duration of blood lactate reduction (FIG. 3 legend) (serum lactate; 60 mg/kg as printed in legend): more than 8 hours | Persistence of reduction in serum lactate after the first infusion (serum lactate; 100 mg/kg followed by 50 mg/kg 8 hours later): more than 22 hours | Duration of lactate reduction (serum lactate; 100 mg/kg single i.v. infusion): > 8 h | Persistence of lactate reduction relative to serum DCA (serum lactate; 100 mg/kg single i.v. infusion, in words): persistent reduction in serum lactate levels which significantly outlasted the serum DCA concentrations | Serum lactate, baseline (serum lactate; 60 + 30 group (mg/kg)): 1.19 ± 0.24 mM | Serum lactate just before second infusion (serum lactate; 60 + 30 group (mg/kg)): 0.72 ± 0.15 mM | Serum lactate 14 h after second infusion (serum lactate; 60 + 30 group (mg/kg)): 0.94 ± 0.12 mM | Level of statistical significance, (c) vs. placebo (serum lactate; 60 + 30 group, 14 h after second infusion): 0.021 | Level of statistical significance, (b) vs. placebo (serum lactate; 60 + 30 group): 0.009 | Serum lactate, baseline (serum lactate; 100 + 50 group (mg/kg)): 0.84 ± 0.10 mM | Serum lactate just before second infusion (serum lactate; 100 + 50 group (mg/kg)): 0.39 ± 0.04 mM | Serum lactate 14 h after second infusion (serum lactate; 100 + 50 group (mg/kg)): 0.32 ± 0.08 mM | Level of statistical significance, (c) vs. 60 + 30 (serum lactate; [10]): 0.004 | Level of statistical significance, (c) vs. placebo (serum lactate; [10]): < 0.001 | Level of statistical significance, (b) vs. placebo (serum lactate; 100 + 50 group): < 0.001 | Time course of DCA concentration and lactate reduction (serum lactate; single 30 mg/kg i.v. infusion, in words, FIG. 1, 30 mg/kg): a peak of DCA concentration which rapidly dropped off, and a similar peak in lactate reduction which disappeared fairly rapidly; also recorded: closely paralleled (over time) the clearance of DCA from the blood | Duration of blood lactate reduction (serum lactate; single 30 mg/kg i.v. infusion, in words, 30 mg/kg): returned to normal levels within a few hours | Duration of blood lactate reduction (serum lactate; single 30 mg/kg i.v. infusion, in words, listed as NaDCA, 30 mg/kg): lasted only a few hours | Reversal of the decline in serum lactate levels (serum lactate; single 60 mg/kg i.v. infusion, at 6.5 hours and afterwards): no evidence of reversal of the decline in serum lactate levels | Persistence of lactate reduction relative to DCA clearance (serum lactate; single 60 mg/kg i.v. infusion, in words): significantly outlasted the persistence of serum DCA levels | Persistence of lactate reduction relative to DCA clearance (serum lactate; single 60 mg/kg i.v. infusion, in words, listed as NaDCA): lasted substantially longer and persisted even after substantially all of the DCA had been cleared from the patient's blood; also recorded: substantially outlasted the clearance of DCA from the circulation | Duration of reduction in plasma lactate after start of second infusion (serum lactate; two infusions eight hours apart): more than 12 hours | Duration of serum lactate reduction using two injections over 24 h (serum lactate; two injections, about 40 mg/kg DCA or more per injection): ≥ 24 h | Clearance rate of 30 mg/kg dose with vs. without prior DCA exposure ([1]; 30 mg/kg i.v., prior 60 mg/kg 8 hours earlier, FIG. 4): comparable | Clearance rate of 50 mg/kg dose after prior exposure vs. single 60 mg/kg dose ([1]; 50 mg/kg i.v., prior 100 mg/kg 8 hours earlier): similar | DCA clearance from blood ([1]; single 60 mg/kg i.v., by 6.5 hours): nearly all of the DCA had already been avidly cleared from the blood | Half-life in dogs relative to humans [2]: about 40 times longer | Inferred plasma concentration relative to that in human patients dosed intravenously [3]: about 1/10 | Duration of transient sedation or sleepiness [4]: about 20 minutes | Transient sedation or sleepiness [4]: a number of subjects reported transient sedation or sleepiness | Half-life ([5]; Lukas et al 1980, Ribes et al 1979): 30 min | Half-life ([5]; Wells et al 1980): 31 min | Time to complete elimination ([5]; Wells et al 1980): ≤ 5 h | Clearance from circulating blood ([5]; in words): rapidly cleared | Half-life [6]: 19 to 24 h | Peak DCA concentration in liver tissue ([7]; oral 100 mg/kg, once or daily for seven days, Evans et al 1981): about 25 μg of DCA per gram of liver tissue | DCA concentration in the liver over time ([7]; rats, Evans 1982): declined rapidly with time | DCA clearance ([7]; rats, in words): fairly rapid | Activation of the pyruvate dehydrogenase enzyme complex over time [8]: dropped off rapidly with time | Toxic effects of oral administration [9]: may have toxic effects
